{"source": "patent US20130338574A1", "about": "“ORAL MEDICINAL COMPOSITION FOR PATIENTS UNDERGOING PERITONEAL DIALYSIS AND METHOD FOR USING SAME” (TOKAI UNIVERSITY EDUCATIONAL SYSTEM, priority 2010, published 2013)", "details_in_all_cases": "oral 30 mg/rat/day, 7 days", "key": {"[1]": {"test": "Transfer of pyridoxamine into blood and peritoneal cavity after oral administration to uremic rat models", "type": "in vivo, Sprague-Dawley male rats", "source_text": "(§1) The uremic rat models were produced using 7-week-old (body weight: 300 g or less) Sprague-Dawley male rats (CLEA Japan, Inc.) by the method described in NPL 27 and NPL 28. More specifically, the above rats were first subjected to 1/3 nephrectomy under anesthesia, and then to 1/2 nephrectomy after a week, thereby producing 5/6 nephrectomy rats (rats with kidney subtotal excision). These rats were allowed to freely take a standard diet for experimental rats (containing 1.06% calcium, 0.9% phosphate, and 21% protein; CE2: CLEA Japan, Inc.) and tap water until the eve of slaughter.\nThe kidney subtotal excision rats with chronic renal failure (uremic rat models) produced in the above manner were separated into two groups (each group: n=3). Distilled water for injection (Otsuka Pharmaceutical Co., Ltd.; here and below) was orally administered compulsorily to Group 1 (control group) once a day, while a pyridoxamine salt aqueous solution prepared by dissolving 30 mg of pyridoxamine dihydrochloride (Sigma; here and below) in 2 mL of distilled water for injection was orally administered compulsorily to Group 2 (pyridoxamine salt orally administered group) once a day. On the 6th day of administration, after distilled water for injection and the pyridoxamine salt aqueous solution were orally administered, respectively, to Groups 1 and 2, 20 ml of a peritoneal dialysis fluid (pH 4.5 to 5.5) (trade name: Dianeal (registered trademark) PD-4 4.25; Baxter Limited) was injected intraperitoneally to both groups.\nSubsequently, on the 7th day of administration, as normal, distilled water for injection was orally administered compulsorily to Group 1, and the pyridoxamine salt aqueous solution was orally administered compulsorily to Group 2. […]\nWhen the quantitative analysis of pyridoxamine and dicarbonyl compounds (3-deoxyglucosone) in the samples was performed by liquid chromatography (HPLC), the above frozen test samples (serum and intraperitoneal fluid) were used after natural thawing at room temperature.\nFirst, 50 μL of each test sample (serum and intraperitoneal fluid) was taken in a test tube. […] Subsequently, the mixture was subjected to centrifugation at 12,000 rpm at 4° C. for 10 minutes to precipitate proteins, and the supernatant was then collected for use as a sample for pyridoxamine quantitative analysis by HPLC.\nThe quantitative analysis of pyridoxamine was carried out under the HPLC conditions described in Experimental Example 1 (2). The quantitative analysis was performed using a standard calibration curve previously prepared by measurement under the above HPLC conditions using standard solutions of pyridoxamine of known concentrations."}, "[2]": {"tested_on": "dicarbonyl compounds (3-deoxyglucosone) in the intraperitoneal fluid", "test": "3-deoxyglucosone in intraperitoneal fluid of uremic rat models, acid peritoneal dialysis fluid (Experimental Example 2)", "type": "in vivo, Sprague-Dawley male rats", "source_text": "as §1, with “slaughter. […]” for “slaughter.”\nWhen the quantitative analysis of pyridoxamine and dicarbonyl compounds (3-deoxyglucosone) in the samples was performed by liquid chromatography (HPLC), the above frozen test samples (serum and intraperitoneal fluid) were used after natural thawing at room temperature. […]\nThe quantitative analysis of dicarbonyl compounds (3-deoxyglucosone) was performed by reversed-phase high-performance liquid chromatography (HPLC) under the following conditions. The quantitative analysis was performed using a standard calibration curve previously prepared by measurement under the following HPLC conditions using standard solutions of 3-deoxyglucosone of known concentrations. […]\nDetection: UV detection of absorbance at a wavelength of 315 nm (UV detector: Shimadzu Corporation)"}, "[3]": {"tested_on": "dicarbonyl compounds (3-deoxyglucosone) in the intraperitoneal fluid", "test": "3-deoxyglucosone in intraperitoneal fluid of uremic rat models, neutral peritoneal dialysis fluid (Experimental Example 3)", "type": "in vivo, rats", "source_text": "Kidney subtotal excision rats with chronic renal failure (uremic rat models) were produced in the same manner as in Experimental Example 2. Distilled water for injection was orally administered compulsorily to Group 1 (control group) (n=3) once a day, and the pyridoxamine salt aqueous solution was orally administered compulsorily to Group 2 (pyridoxamine salt orally administered group) once a day. On the 6th day of administration, after distilled water for injection and the pyridoxamine salt aqueous solution were orally administered, respectively, to Groups 1 and 2, 20 ml of a neutral peritoneal dialysis fluid (pH 6.5 to 7.5) to be mixed before use (trade name: Dianeal (registered trademark)-N PD-4-1.5 mixture; Baxter Limited) (Table 1) was injected intraperitoneally to both groups, in place of the acid peritoneal dialysis fluid administered in Experimental Example 2. As explained in Experimental Example 1, the peritoneal dialysis fluid was composed of an upper-compartment solution and a lower-compartment solution separated by a partition, and both solutions were mixed immediately before being injected into the peritoneal cavity. […] The concentration of dicarbonyl compounds (3-deoxyglucosone) in the intraperitoneal fluid of each group was measured by HPLC in the same manner as in Experimental Example 2."}, "[4]": {"details": "within an hour after last administration, Dianeal PD-4 4.25 i.p. on 6th day"}}, "data": [{"smiles": "Cc1ncc(CO)c(CN)c1O.Cl.Cl", "note": "[pyridoxamine dihydrochloride, Pyridoxamine dihydrochloride]", "values": [{"measurement": "Pyridoxamine amount in intraperitoneal fluid", "setting": "[1]; amount in 20.8 ml of collected intraperitoneal fluid", "result": 321, "unit": "µg"}, {"measurement": "pyridoxamine concentration in the intraperitoneal cavity, Group 2 relative to Group 1 (control)", "setting": "[1]", "result": "≥ 65", "unit": "times"}, {"measurement": "Pyridoxamine concentration in intraperitoneal fluid", "setting": "[1]; [4]", "result": 14.7, "unit": "µg/mL"}, {"measurement": "Pyridoxamine concentration in serum", "setting": "[1]; [4]", "result": 13.8, "unit": "µg/mL"}, {"measurement": "3-deoxyglucosone concentration in the peritoneal cavity relative to control group", "setting": "[2]; acid peritoneal dialysis fluid", "result": "less than one-third"}, {"measurement": "3-deoxyglucosone concentration in intraperitoneal fluid", "setting": "[2]; acid peritoneal dialysis fluid (pH 4.5 to 5.5) Dianeal PD-4 4.25, 20 ml i.p., control group 30.8", "result": 9.9, "unit": "µg/mL"}, {"measurement": "3-deoxyglucosone concentration in the peritoneal cavity relative to control group", "setting": "[3]; neutral peritoneal dialysis fluid", "result": "less than one-half"}, {"measurement": "3-deoxyglucosone concentration in intraperitoneal fluid", "setting": "[3]; neutral peritoneal dialysis fluid (pH 6.5 to 7.5) Dianeal-N PD-4-1.5 mixture, 20 ml i.p., control group 23.4", "result": 10.3, "unit": "µg/mL"}]}]}
